Data as given in patent US20230271928A1, “NAPHTHYLUREA COMPOUND, METHODS OF PREPARATION AND USE THEREOF” (Henan Radiomedical Science and Technology Co., Ltd., priority 2021, published 2023).
Where two headings read alike, the source gives them in different places.

Columns and labels:
Format in all cases: cell-based
SMMC-7721 cells = test: MTT proliferation assay, SMMC-7721; conditions: Homo sapiens; SMMC-7721, MTT, 48 h
Experimental: (§1) Difference cell lines HepG2, SMMC-7721, HuH-7, MCF-7, MDA-MB-231, MDA-MB-468, PC9, PC9-AR, PC9-GR, Jurkat and Molt-13 were harvested during log phase; the number of the cells in an original cell suspension was counted; the original cell suspension was diluted to a density of 5×10^4 cells/mL; for a 96-well plate, 100 uL of the cell suspension was transferred to each well; DMSO is used as solvent for negative control; (2E)-3-(6-bromo-2-pyridyl)-2-cyano-N-[(1S)-1-phenylethyl]-2-acrylamide (WP1066CAS: 857064-38-1, with a formula
(§2) or gefitinib was used as a positive control; the naphthylurea compound ID1120B-1 and the phosphate ID1120B-P thereof were diluted with DMSO and added into the 96-well plate to achieve a final concentration of 0.1, 0.3, 1, 3, 10, 30, 100 and 300 μmol/L in each well; the 96-well plate was incubated for 48 h; 10 μL of MTT solvent (5 mg/mL) was added into each well; the 96-well plate was incubated at 37° C. for 4 h; a culture supernatant was discarded; 150 μL of DMSO was added into each well; the 96-well plate was shaken for 10 min on a plate shaker; an optical density (OD) of the resulting product was measured at a wavelength of 490 nm by an ELISA reader. Test results were recorded. A cell growth curve was drawn with the dosage of each compound as abscissa and the absorbance value as ordinate. The half maximum inhibition rates (IC50 value) of the cancer cells were shown in Table 1, FIGS. 1A-1J and FIGS. 2A-2J.

MDA-MB-468 cells = test: MTT proliferation assay, MDA-MB-468; conditions: Homo sapiens, MDA-MB-468, MTT
Experimental: (§3) Test results were recorded. A cell growth curve was drawn with the dosage of each compound as abscissa and the absorbance value as ordinate.

HepG2 cells [1] = test: MTT proliferation assay, HepG2; conditions: Homo sapiens
Experimental: as §1, §2

MCF-7 cells = test: MTT proliferation assay, MCF-7; conditions: Homo sapiens
Experimental: as §3

HepG2 cells [2] = test: Cell cycle analysis by PI flow cytometry; conditions: HepG2, 48 h
Experimental: HepG2 cells were harvested during log phase, digested, centrifuged and prepared into a single cell suspension; the number of the cells in the single cell suspension was counted; the cells were seeded into a 12-well plate, with 2×10^5 cells per well; three wells were used as a parallel control design; 16 hours after seeding, the cells were treated with the compounds in a concentration gradient for 48 h; the cells were digested with trypsin and resuspended; the number of the cells in the cell suspension was counted and diluted to 5×10^5 cells/mL; after the digestion was completed, the cell suspension was centrifuged; the supernatant was discarded; the pellet was washed twice with PBS (each time the mixture was centrifuged 2000 rpm for 5 min); the supernatant was discarded; a fixative comprising 980 μL of 70% cold ethanol and 20 μL of 5% BSA (a small amount of BSA reduces cellular stress and damage) was added to each microcentrifuge tube, so that the cells were fixed overnight at 4° C.; the fixative is discarded; the cells were washed three times in PBS to remove residual fixative (each time the mixture was centrifuged at 1000 rpm for 3 min); a DNA quantification kit is used to measure the content of DNA according to the following instruction (Suo Laibao, Beijing): each sample was incubated in 100 μL of RNase A at 37° C. for 30 min; 500 μL of PI (propidium iodide) was added to each sample; each sample was incubated at room temperature for 30 min in the dark; the cell cycle was analyzed by a flow cytometry and a ModFit software; and Graphpad prism 6.0 was used to estimate the percentage of a cell population in the different phases of the cell cycle.

MDA-MB-231 cells = test: MTT proliferation assay, MDA-MB-231; conditions: Homo sapiens; MDA-MB-231, MTT, 48 h
Experimental: as §3

HuH-7 cells = test: MTT proliferation assay, HuH-7; conditions: Homo sapiens; HuH-7, MTT, 48 h
Experimental: as §1, §2

[3] = MCF7, MCF-7, MTT, 48 h, read-out: IC50
[4] = compared with negative control (DMSO)

Structure (SMILES)	IC50 (MDA-MB-468 cells; MDA-MB-468, 48 h)	IC50 (HepG2 cells [1]; HepG2, 48 h)	also measured
O=C(NCc1ccccc1)Nc1ccc(OCc2ccc(OCCN3CCCCC3)c(Cl)c2)c2ccccc12 [ID1120C-1]			IC50 (SMMC-7721 cells): 6.75 µM
N#Cc1cc(OCCN2CCCCC2)ccc1COc1ccc(NC(=O)NCc2ccccc2)c2ccccc12 [ID1120D-1]			IC50 (SMMC-7721 cells): 6.89 µM
O=C(Nc1ccc(OCc2ccc(OCCN3CCCCC3)cc2)c2ccccc12)NC1CCCCC1 [ID1207B-1]			IC50 (MDA-MB-468 cells; 48 h): 267 µM; IC50 (HepG2 cells [1]; 48 h): 462 µM
O=C(NCCc1ccccc1)Nc1ccc(OCc2ccc(OCCN3CCCCC3)cc2)c2ccccc12 [ID1210B-1]			IC50 (MCF-7 cells; MCF7, 48 h): 8.08 µM
O=C(Nc1ccc(Cl)c(Cl)c1)Nc1ccc(OCc2ccc(OCCN3CCCCC3)cc2)c2ccccc12 [ID1214B-1]	688 µM	0.88 µM	IC50 (MCF-7 cells; [3]): 88.4 µM; induction of cells in the G2/M phase (HepG2 cells [2]; [4]): dramatically induce the liver cancer cells in the G2/M phase in a dose-dependent manner; percentage of cells in the G1/S phase (HepG2 cells [2]; [4]): significantly decrease the percentage of the liver cancer cells in the G1/S phase; length of the G2 phase, % of the cell cycle, after treatment (HepG2 cells [2]; value reached after treatment (increase from DMSO control value)): 17.54%; IC50 (MDA-MB-231 cells): 114 µM; IC50 (SMMC-7721 cells): 8.73 µM
O=C(Nc1ccc(OCc2ccc(OCCN3CCCCC3)cc2Cl)c2ccccc12)NC1CCCCC1 [ID1215C-1]			IC50 (MDA-MB-468 cells; 48 h): 3.47 µM
O=C(Nc1ccc(OCc2ccc(OCCN3CCCCC3)cc2)c2ccccc12)NC1CCCC1 [ID1217B-1]	33.9 µM	72.6 µM	
COc1ccc(NC(=O)Nc2ccc(OCc3ccc(OCCN4CCCCC4)cc3)c3ccccc23)cc1OC [ID1224C-1]		93.8 µM	
O=C(Nc1ccc(OC(F)(F)F)c(Cl)c1)Nc1ccc(OCc2ccc(OCCN3CCCCC3)cc2)c2ccccc12 [ID1229C-1]	47.5 µM	50.3 µM	
O=C(Nc1ccc(F)c(F)c1)Nc1ccc(OCc2ccc(OCCN3CCCCC3)cc2)c2ccccc12 [ID210105C-1]		66.9 µM	
O=C(NCc1cccc(Cl)c1)Nc1ccc(OCc2ccc(OCCN3CCCCC3)cc2)c2ccccc12 [ID210106D-1]		5.25 µM	IC50 (HuH-7 cells): 6.83 µM
COc1ccc(NC(=O)Nc2ccc(OCc3ccc(OCCN4CCCCC4)c(Cl)c3)c3ccccc23)cc1 [ID210110C-1]	6.13 µM		
COc1ccc(CNC(=O)Nc2ccc(OCc3ccc(OCCN4CCCCC4)cc3)c3ccccc23)cc1 [ID210113C-1]		1.31 µM	IC50 (HuH-7 cells): 4.75 µM
O=C(NCc1ccc(Cl)c(C(F)(F)F)c1)Nc1ccc(OCc2ccc(OCCN3CCCCC3)cc2)c2ccccc12 [ID210114B-1]		3.97 µM	IC50 (MCF-7 cells; [3]): 13.2 µM
O=C(NCc1ccc(F)c(Cl)c1)Nc1ccc(OCc2ccc(OCCN3CCCCC3)cc2)c2ccccc12 [ID210115B-1]		4.65 µM	IC50 (MCF-7 cells; [3]): 39 µM
O=C(NCc1ccc(OC(F)(F)F)cc1)Nc1ccc(OCc2ccc(OCCN3CCCCC3)cc2)c2ccccc12 [ID210118D-1]		37 µM	IC50 (HuH-7 cells): 26.5 µM
O=C(Nc1ncccc1Cl)Nc1ccc(OCc2ccc(OCCN3CCCCC3)cc2)c2ccccc12 [ID210119B-1]	26.6 µM	26.5 µM	
O=C(Nc1ccc(OCc2ccc(OCCN3CCCCC3)cc2)c2ccccc12)NC1CCOCC1 [ID210127B-1]	0.736 µM	3.5 µM	
S=C(NCc1ccccc1)Nc1ccc(OCc2ccc(OCCN3CCCCC3)cc2)c2ccccc12 [IY1207A-1]			IC50 (MCF-7 cells; [3]): 24.3 µM

Structure (SMILES)	IC50 (MDA-MB-468 cells; MDA-MB-468, 48 h)	IC50 (HepG2 cells [1]; HepG2, 48 h)	also measured
O=C(Nc1ccc(OCc2ccc(OCCN3CCCCC3)cc2F)c2ccccc12)NC1CCCC1 [IY1215C-1]	5.36 µM		
O=C(Nc1ccccc1)Nc1ccc(OCc2ccc(OCCN3CCCCC3)cc2)c2ccccc12 [IY1223B-1]	13.2 µM		
COc1ccc(NC(=O)Nc2ccc(OCc3ccc(OCCN4CCCCC4)cc3)c3ccccc23)cc1Cl [IY1225B-1]		1.95 µM	
O=C(Nc1ccc(Cl)c(F)c1)Nc1ccc(OCc2ccc(OCCN3CCCCC3)cc2)c2ccccc12 [IY1229C-1]		6.43 µM	
O=C(Nc1ccc(Cl)cc1)Nc1ccc(OCc2ccc(OCCN3CCCCC3)cc2)c2ccccc12 [IY1229D-1]			IC50 (MDA-MB-468 cells; 48 h): 14.2 µM; IC50 (HepG2 cells [1]; 48 h): 12.2 µM
O=C(Nc1ccc(Cl)cc1F)Nc1ccc(OCc2ccc(OCCN3CCCCC3)cc2)c2ccccc12 [IY210103B-1]	20.4 µM	68.2 µM	
O=C(Nc1ccc(F)cc1)Nc1ccc(OCc2ccc(OCCN3CCCCC3)c(Br)c2)c2ccccc12 [IY210105A-1]	20.4 µM		
O=C(Nc1ccc(F)c(Cl)c1)Nc1ccc(OCc2ccc(OCCN3CCCCC3)cc2)c2ccccc12 [IY210105B-1]	51.4 µM	43.8 µM	
COc1cc(NC(=O)Nc2ccc(OCc3ccc(OCCN4CCCCC4)cc3)c3ccccc23)ccc1F [IY210105C-1]	1.89 µM	4.39 µM	
O=C(Nc1ccc(F)cc1)Nc1ccc(OCc2ccc(OCCN3CCCCC3)cc2)c2ccccc12 [IY210105D-1]	3.8 µM	3.8 µM	
O=C(Nc1ccc(Cl)cc1)Nc1ccc(OCc2ccc(OCCN3CCCCC3)c(F)c2)c2ccccc12 [IY210106D-1]			IC50 (MDA-MB-468 cells; 48 h): 6.34 µM
O=C(NCc1ccc(Cl)cc1)Nc1ccc(OCc2ccc(OCCN3CCCCC3)cc2)c2ccccc12 [IY210113C-1]		3.94 µM	IC50 (HuH-7 cells): 12.5 µM
O=C(NCc1ccc(C(F)(F)F)cc1)Nc1ccc(OCc2ccc(OCCN3CCCCC3)cc2)c2ccccc12 [IY210113D-1]		3.36 µM	IC50 (HuH-7 cells): 13.7 µM
O=C(NCc1cc(F)cc(F)c1)Nc1ccc(OCc2ccc(OCCN3CCCCC3)cc2)c2ccccc12 [IY210115B-1]		5.77 µM	IC50 (SMMC-7721 cells): 40.1 µM
O=C(NCc1ccc(F)cc1F)Nc1ccc(OCc2ccc(OCCN3CCCCC3)cc2)c2ccccc12 [IY210118B-1]			IC50 (SMMC-7721 cells): 23.6 µM
O=C(NCc1ccc(F)cc1)Nc1ccc(OCc2ccc(OCCN3CCCCC3)cc2)c2ccccc12 [IY210119B-1]		3.5 µM	IC50 (SMMC-7721 cells): 0.736 µM
O=C(Nc1ccncc1)Nc1ccc(OCc2ccc(OCCN3CCCCC3)cc2)c2ccccc12 [IY210122C-1]	11.6 µM	11 µM	
O=C(Nc1ccc(-c2ccccc2)cc1)Nc1ccc(OCc2ccc(OCCN3CCCCC3)cc2)c2ccccc12 [IY210128B-1]	62.5 µM		
CNC(=O)c1cc(Oc2ccc(NC(=O)Nc3ccc(Cl)c(C(F)(F)F)c3)cc2)ccn1 [Sorafenib, reference compound]		6.17 µM	IC50 (HuH-7 cells): 17.6 µM; IC50 (SMMC-7721 cells): 30 µM
